Test results reported in a melting point compilation (Tetko et al.; mined from patent text by program, amines drawn as free bases though some values may be those of a salt).
Non-standard residues stand in square brackets, D forms with d. Residues, ends and D or L forms follow the SMILES beside them. pGlu = O=C1CC[C@@H](C(=O)O)N1

For `CC(C)c1cc2n(Cc3ccccc3)cc(C(=O)O)c(=O)n2n1`, the melting point was 180 to 185 °C. In the case of `CC(Oc1cc(-c2nn(C)c(C(F)(F)F)c2Cl)c(F)cc1Cl)C(=O)O` (centres undefined), the melting point is reported as 150 to 151 °C. `CCCCN(C)C(=O)CS(=O)CCCCCOc1ccc(C2=C(c3ccccc3)CCCc3ccccc32)cc1` (centres undefined) gave a melting point of 120 to 121 °C. Work on `CC(=O)Oc1ccccc1C(=O)Nc1ncc(S(C)(=O)=O)s1` yielded a melting point of 173 to 175 °C. In the case of `O=[N+]([O-])c1ccc(OCCCCl)cc1`, the melting point is reported as 37 to 39 °C. Molecule `COc1ccc(-c2c(C)ncc(C#N)c2Nc2ccc3[nH]ccc3c2C)cc1OC` has a melting point of 202 to 203 °C. `COc1ccc(-c2nc(S(=O)(=O)c3nccs3)[nH]c2-c2ccc(OC)cc2)cc1` gave a melting point of 219 °C. `NCCNC(=O)c1nc(Cl)c(N)nc1N` showed a melting point of 173 to 174 °C. With `CCCCCCCC(=O)N(C)Cc1cccc(-c2ccc(CCC(=O)O)cc2)c1` the melting point was 91 °C. With `COc1cc(Nc2c(C#N)cnc3cc(/C=C/CCN4CCOCC4)ccc23)c(Cl)cc1Cl` the melting point was 88 to 89 °C. `Cc1ccc(S(=O)(=O)N2[C@@H](CCC#N)CC[C@H]2c2ccc(F)cc2)cc1` (racemic) gave a melting point of 86 °C. For `O=C(CC(C[N+](=O)[O-])c1ccccc1)c1ccc(O)cc1` (centres undefined), the melting point was 112 to 113 °C. Molecule `Cc1cccc(C)c1N1CCCCS/C1=N/N=C\c1ccc(-c2ncn(-c3ccc(OC(F)(F)F)cc3)n2)cc1` has a melting point of 100 to 106 °C. For `CCSc1nc(Cl)nc2cccnc12`, the melting point was 101 to 103 °C. `CC1=NN(C)c2nc(C)c(CCO)c(=O)n2C1` showed a melting point of 140 °C. `Cc1noc(CC(=O)O)n1` gave a melting point of 95 °C. `CN(C)CCc1c[nH]c2ccc([N+](=O)[O-])cc12` showed a melting point of 132 to 135 °C. `O=C(O)Cc1cc(C(=O)c2ccccc2)cc(Br)c1O` gave a melting point of 132 °C. For `CCCCCS(=O)(=O)NC(=O)/C=C/c1ccc(OCCC2(C)OCCO2)cc1Oc1ncc(C(F)(F)F)cc1Cl`, the melting point was 90 to 92 °C. Molecule `Nc1ccc(S(=O)(=O)Nc2nnc(CC(=O)O)s2)cc1` has a melting point of 209 to 210 °C. In the case of `N#CCOc1ccc2cc(-c3cnc(Cc4ccc5ccccc5c4)o3)ccc2c1`, the melting point is reported as 155 to 158 °C. With `CC(C)(C)N1CC(c2ccc([N+](=O)[O-])cc2)OC1=O` (centres undefined) the melting point was 123 to 125 °C. Molecule `N#Cc1cc(C(=O)Nc2cncnc2Cl)ccc1Cl` has a melting point of 189 to 190 °C. In the case of `COC1C(CO)OC(n2c3ccc(C=O)cc3c3c4c(c5c6cc(C=O)ccc6[nH]c5c32)C(=O)NC4=O)C(O)C1O` (centres undefined), the melting point is reported as greater than 300 °C. `O=C(NCC1CC2CCC1C2)n1cc(F)c(=O)[nH]c1=O` (centres undefined) showed a melting point of 165 to 166 °C. For `NP(N)(=O)Nc1ccccc1[N+](=O)[O-]`, the melting point was 200 °C. `CC(=O)NNC(=O)c1ccc2occc2c1` gave a melting point of 145 to 146 °C. With `CC(C)CN(CC(O)C(Cc1ccccc1)NC(=O)C(CC(N)=O)NC(=O)c1ccc2ccccc2n1)C(=O)NC(C)(C)C` (centres undefined) the melting point was 107 to 110 °C. Work on `CCOC(=O)Cn1c(=O)[nH]c2ccc(Cl)cc2c1=O` yielded a melting point of 214 to 215 °C. Molecule `CCOC(=O)C(C)(C)c1nsc2ccc([N+](=O)[O-])cc12` has a melting point of 75 to 77 °C. `CC(C)(C)OC(=O)N1CCCN(c2cc[nH]c(=S)c2C#N)CC1` showed a melting point of 203 to 205 °C. For `O=C(N[C@@H](Cc1ccc(OCCc2coc(-c3ccccc3)n2)cc1)C(=O)O)c1ccc(Cl)cc1`, the melting point was 158 to 161 °C. With `CC(C)C[C@@H](C(=O)O)N1C(=O)NC(C(F)(F)F)(C(F)(F)F)C1=O` the melting point was 154 to 156 °C. `C[C@@H]1CN(c2ccc(S(=O)(=O)c3ccccc3)c3ccccc23)C[C@H](C)N1` gave a melting point of 168 to 169 °C. For `CC(=O)OC1CC2=CCC3C4CCCC4(C)CCC3C2(C)C(OC(C)=O)C1` (centres undefined), the melting point was 163 to 165 °C. Molecule `Nc1cc(C(F)(F)F)nc(C(F)(F)F)c1` has a melting point of 147 to 149 °C. In the case of `COc1ccc2c(c1)C=C(/C=C/C=C/C=C/C(=O)O)C(C)(C)O2`, the melting point is reported as 154 to 156 °C. With `O=C(Nc1ccc(OCc2ccncc2)c2ccccc12)c1cc(F)cc(N2CCCCC2)c1` the melting point was 69 to 71 °C. Work on `O=C(NP(=O)(O)CCc1ccccc1)OCc1ccccc1` yielded a melting point of 110 °C. With `N#CC=CC(=O)C=NN1CC(=O)NC1=O` the melting point was 171 to 173 °C. With `COC(=O)c1sc(C)c(C#N)c1N(C(=O)OC(C)(C)C)C(=O)OC(C)(C)C` the melting point was 97 to 102 °C. For `COn1c(C(C)C)nc2c(N)nc3ccccc3c21`, the melting point was 217 to 219 °C. `O=C(O)c1cnc2c(F)c(F)ccc2c1` gave a melting point of 275 °C. Molecule `CC(=O)Cc1cc([C@]2(c3cccc(-c4cccnc4F)c3)N=C(N)N(C)C2=O)cn1CCCF` has a melting point of 147 to 150 °C. `CC1=C(c2ccccc2)C(=O)N(C(C)(C)C(O)c2cc(F)cc(F)c2)CO1` (centres undefined) showed a melting point of 87.6 to 89 °C. `O=C1Nc2ccc(NC(=O)C(=O)N3CCC(Cc4ccccc4)CC3)cc2C1=O` gave a melting point of 234 to 236 °C. In the case of `Nc1nnc2c3c(c(N4CCCC4)nn12)CCCC3`, the melting point is reported as 243 to 244 °C. Work on `CCOC(=O)c1c(OC(=O)C=C(C)C)c(CC)c(C)[nH]c1=O` yielded a melting point of 166 °C. `Cc1cc(-n2nc(C#N)cc2-c2ccc(S(C)(=O)=O)cc2)ccc1Cl` showed a melting point of 163 to 164 °C. In the case of `Cc1cn2c(c1C(=O)OC(C)C)SCC2CC(N)=O` (centres undefined), the melting point is reported as 143 to 146 °C. Work on `CC(C)(C)n1cc(C(=O)O)c(=O)c2cc(F)c(N3CCNCC3)nc21` yielded a melting point greater than 270 °C. Work on `COc1ccc2cc([C@H](C)C(=O)OCC(=O)COC(=O)c3ccc(CO[N+](=O)[O-])cc3)ccc2c1` yielded a melting point of 105 to 107 °C. `CCCCCCc1ccc(S(=O)(=O)Nc2nncs2)cc1` gave a melting point of 125 to 126 °C. `CNC(=O)Sc1ncc(Cl)cn1` gave a melting point of 115 °C. For `O=c1c(-c2ccccc2)cc(Cl)c2n1C=CSc1ccsc1-2`, the melting point was 149 to 151 °C. In the case of `COc1ccc(Oc2ccc3ccc(NC(=O)c4ccc(OC)cc4)nc3n2)cc1`, the melting point is reported as 163 °C. In the case of `CCCc1ccccc1OCCCCCOc1ccc2c(=O)cc(C(=O)OCC)oc2c1CCC`, the melting point is reported as 73 to 75 °C. `COC(=O)C=Cc1ccc(OC)cc1` gave a melting point of 85 to 86 °C. Work on `COCC(=O)Nc1nc(NC(=O)COC)c2[nH]cnc2n1` yielded a melting point of 219 to 220 °C. `Cc1ccc2c(c1)C(c1ccccc1)CC(NC(=O)Nc1cccc(Cl)c1)C(=O)N2CC(=O)NC(C)(C)C` (centres undefined) gave a melting point of 282 to 285 °C. Molecule `CC(C)CC1(C(CCN2C(=O)c3c(F)ccc(F)c3C2=O)C(=O)NO)CCN(CCc2ccccc2)C1=O` (centres undefined) has a melting point of 131 to 132 °C. `Cc1ncsc1CCOc1ccc(NC(=O)c2cc(F)cc(N3CCCCC3)c2)c2ccccc12` gave a melting point of 221 to 222 °C. With `Cc1ccc(S(=O)(=O)N(CCO)c2cc(C)cc([N+](=O)[O-])c2N)cc1` the melting point was 201 °C. Molecule `CCCC(=NOc1ccc(Cl)cc1)c1cc(Cl)ccc1NS(=O)(=O)C(F)(F)F` has a melting point of 62.5 to 64.5 °C. With `CCCCCCC1c2sccc2CCN1CCNC(=O)c1ccc(NS(C)(=O)=O)cc1` (centres undefined) the melting point was 132 to 134 °C. Work on `COC(=O)C(C)(C)C(=O)Oc1ccc(C(=O)c2ccccc2)cc1` yielded a melting point of 121 to 122 °C. Work on `N[C@@H](Cc1ccccc1)C(=O)NC(=O)N(CCCl)N=O` yielded a melting point of 113 to 115 °C. In the case of `COc1cccc(CCS(=O)c2nc3cnccc3[nH]2)c1` (centres undefined), the melting point is reported as 125 to 128 °C. Molecule `COc1ccc(-c2c(Cl)c(CNC(C)(C)C)nc3sc4c(c23)CCN(Cc2ccccc2)C4)cc1OC` has a melting point of 134 to 135 °C. For `C=CCOc1cc(-n2c(OC)nc(C(F)(F)F)cc2=O)c(F)cc1Cl`, the melting point was 103 to 104 °C. For `NNC(=O)Cc1cc(C(=O)c2ccc(Br)cc2)sc1-c1ccccc1`, the melting point was 157 to 161 °C. Work on `CC(C)C(NC(=O)OC(C)(C)C)N1CC(NC(=O)Cc2ccccc2)C1=O` (centres undefined) yielded a melting point of 64 to 66 °C. With `OCc1cc2c(Oc3ccc(Cl)cc3)cncc2s1` the melting point was 90 to 91 °C. Molecule `COc1cc(OC)cc(N2CCN(C(=S)Nc3nc(C)c(C)nc3OC)CC2)c1` has a melting point of 71 to 73 °C. Molecule `FC(F)(F)c1ccc(CN2CC3(COc4ccc(-c5ccncc5)cc43)c3ccccc32)o1` (centres undefined) has a melting point of 108 to 110 °C. With `CC(=O)c1ccc(NC(=O)Nc2ccc(S(N)(=O)=O)cc2)cc1` the melting point was 258 to 260 °C. For `Cn1cc(-c2ccccc2)c(=S)c(-c2cccc(Cl)c2)c1`, the melting point was 190 to 193 °C. Molecule `Cc1cc(Br)cc(C)c1NC(=O)Nc1ccc(-n2nc(C(F)(F)F)cc2C(F)(F)F)cc1` has a melting point greater than 230 °C. With `CC(=O)c1c(C)c2ccccc2n1N` the melting point was 94 to 98 °C. With `O=C(c1ccccc1)c1ccc(C(=O)N2Cc3ccccc3CCc3ccccc32)cc1` the melting point was 89 to 92 °C. Molecule `CCCSc1c2ccccc2nc2c1c(C)nn2-c1ccccn1` has a melting point of 91 to 93 °C. `COC(=O)[C@H](CS)NC(=O)[C@@H]1CCC(=O)N1` ([pGlu]-Cys-OMe) showed a melting point of 114 to 116 °C. With `COc1cc(-c2nc3ccc(OCCN4CCN(C)CC4)cc3n2Cc2ccccc2)cc(OC)c1OC` the melting point was 113 °C. For `COc1cc([N+](=O)[O-])c(N)cc1O`, the melting point was 208 °C. `OC1CCCCC1Oc1ccc(Oc2ccccc2)cc1` (centres undefined) showed a melting point of 103 to 105 °C. For `CCc1ccc2[nH]c3cnn(C)c3c(=O)c2c1`, the melting point was 266 °C. In the case of `COc1ccc(-c2nc(CC(=O)O)c(-c3ccco3)o2)cc1`, the melting point is reported as 177 to 178 °C. With `Cc1cc2ccncc2c(=O)c2ccccc12` the melting point was 112 to 116 °C. `COC(=O)C(C)c1ccc(C(=O)c2cccs2)cc1` (centres undefined) gave a melting point of 62 °C. `O=Cc1ccc(-c2ccc(-c3ccc(C=O)o3)nc2)cc1` gave a melting point of 217 to 219 °C. `COc1ccc2cn[nH]c(=O)c2c1` showed a melting point of 228 to 229 °C. Work on `CC(=O)O[C@H]1c2cc(F)ccc2Cc2ccccc2[C@H]1C[C@@H]1COC(C)(C)O1` yielded a melting point of 147 to 149 °C. `CC(C)Sc1c(C(N)=O)sc2ccc(OCc3ccccc3)cc12` showed a melting point of 150 to 152 °C. Molecule `O=C(O)COc1cccc(Cn2cc(C3c4ccccc4C=Cc4ccccc43)c(=S)[nH]c2=O)c1` has a melting point of 148 to 155 °C. In the case of `COc1ccc(Cn2nc(CN3CCN(c4ccccc4OC)CC3)c3cc(OC)c(OC)cc32)cc1OC`, the melting point is reported as 149 to 150 °C. `CCOC(=O)c1cc2cc(CC)ccc2[nH]1` showed a melting point of 94 °C. With `CN(C)C(=O)c1ccccc1Sc1ccc([N+](=O)[O-])cc1[N+](=O)[O-]` the melting point was 144 to 145 °C. `Cc1cc(C)c(S(=O)(=O)OCCC2CCN(S(=O)(=O)c3c(C)cc(C)cc3C)CC2)c(C)c1` gave a melting point of 93.5 to 94 °C. Molecule `CC(C)(C)OC(=O)N1CCN(c2nccc(Oc3ccc(NC(=O)c4cc(F)cc(N5CCOCC5)c4)c4ccccc34)n2)CC1` has a melting point of 131 to 133 °C.
